Results on nine molecules are retold here after patent publication US20230331655A1, “HYDROXYN[…] AND METHODS OF USE THEREOF” (UNIVERSITY OF MARYLAND, BALTIMORE, priority 2020, published 2023).

The nature of data set [1]: pharmacokinetics in plasma and brain after intraperitoneal administration (UPLC-MS/MS). Particulars: i.p. 5 mg/kg; for t1/2 Brain / t1/2 Plasma: terminal half-life; for Brain Concentration over time, sex-dependent difference / Plasma Concentration over time, sex-dependent difference / Brain Total exposure (AUC), sex-dependent difference / Plasma Total exposure (AUC), sex-dependent difference: female vs male mice; for Brain Concentration over time, sex-dependent difference / Plasma Concentration over time, sex-dependent difference: ANOVA, Holm-Šídák post-hoc; for Brain Total exposure (AUC), sex-dependent difference / Plasma Total exposure (AUC), sex-dependent difference: t-test; for brain concentration at 4 h post-treatment: LLOQ 5.0 ng/ml. Also on record: key to Brain Concentration over time, sex-dependent difference / Plasma Concentration over time, sex-dependent difference: F, female; M, male; NS, not statistically different. The data set is classed as in vivo, mouse. The method, then:
Male and female CD-1 mice (Charles Rivers Laboratories, Raleigh, NC, USA), 8-11 weeks old at the time of testing, were habituated to the University of Maryland (Baltimore, MD, USA) animal facility for at least one week prior to testing. Mice were group housed 4-5 per cage with a constant 12-hour light cycle (lights on/off at 07:00/19:00). Food and water were available ad libitum. All experiments were performed during the light phase. All animal studies were approved by the University of Maryland School of Medicine Institutional Animal Care and Use Committee and conducted in accordance with the National Institutes of Health Guide for the Care and Use of Laboratory Animals.
(2R,6R)-HNK hydrochloride, (2S,6S)-HNK hydrochloride, (2R,6S)-HNK, (2S,6R)-HNK, (2R,5R)-HNK, (2S,5S)-HNK, (2R,5S)-HNK, (2S,5R)-HNK, (2R,4R)-HNK, (2S,4S)-HNK, (2R,4S)-HNK, and (2S,4R)-HNK hydrochloride were synthesized at the National Center for Advancing Translation Sciences (National Institutes of Health, Rockville, MD, USA) using methods previously described in Morris et al., Org Lett 17:4572-4575 (2017), which is incorporated by reference herein in its entirety. (5R)-methyl-(2R,6R)-HNK was obtained from Organix Inc. (Woburn, MA, USA) or from the National Center for Advancing Translational Sciences (Rockville, MD, USA); synthesis and characterization are described in the Supplemental Information. All compounds were dissolved in 20% (w/v) cyclodextrin (Sigma Aldrich, USA) in saline and administered intraperitoneally (i.p.) in a volume of 7.5 ml/kg.
At 10 min (0.167 h), 30 min (0.5 h), 1 h, 2 h, and 4 h post-treatment, mice were deeply anesthetized (3.5% isoflurane for approximately 2 min). Trunk blood was collected into 1.5-ml polypropylene tubes containing 30 μl of disodium EDTA (0.5 M, pH 8.0) and kept on ice until plasma collection (<30 min). Brains were then removed, flash-frozen in isopentane, and stored at −80° C. until analysis. Blood was centrifuged at 8000×g for 6 min at 4° C. to obtain plasma. Plasma was collected into clean microcentrifuge tubes and stored at −80° C. until analysis.
Ultra-performance liquid chromatography-tandem mass spectrometry (UPLC-MS/MS) methods were developed and optimized to determine the concentration of each HNK in mouse plasma and brain samples following systemic administration. Mass spectrometric analysis was performed on a Waters Xevo TQ-S triple quadrupole instrument using electrospray ionization in positive mode with the selected reaction monitoring. The separation of HNKs from endogenous components was performed on a Waters Acquity UPLC with 0.5 ml/min flow rate and gradient elution. The mobile phase A and B were 0.1% formic acid in water and 0.1% formic acid in acetonitrile, respectively. Plasma and brain concentrations of (2R,6R)-, (2S,6S)-, (2R,4S)-, and (2S,4R)-HNK were determined by hydrophilic interaction liquid chromatography-tandem mass spectrometry (HILIC UPLC-MS/MS) using a BEH amide column (1.7μ, 2.1×50 mm). Plasma and brain concentrations of (2R,6S)-, (2S,6R)-, (2R,5R)- (2S,5S)-, (2R,5S)-, (2S,5R)-, (2R,4R)-, and (2S,4S)-HNK; and (5R)-methyl-(2R,6R)-HNK were determined by reversed phase UPLC-MS/MS based upon a previously described protocol with several modifications using a BEH C18 column ([…], 2.1×50 mm). See Moaddel et al., Talanta 82:1892-1904 (2010), and Zanos et al., Nature 533:481-486 ([…]), both of which are incorporated by reference herein in their entireties.
The gradient for HILIC UPLC method was: 0-0.2 min 98% B; 0.2-1.4 min 98% to 35% B; 1.4-1.8 min 35% to 10% B, 1.9-2.4 min 98% B. The gradient for BEH Cis UPLC method was: 0-0.2 min 1% B; 0.2-1.4 min 1% to 35% B; 1.4-1.8 min 35% to 98% B, 1.8-2.2 min 98% B, 2.3 min 1% B. The analytical run time of the UPLC methods was 2.5 min. The calibration standards and quality control samples were prepared in blank mouse plasma and brain homogenate. Calibration standards ranged from 5.0-5000 ng/ml. […]

The target in another data set is NMDARs. Particulars: read-out: Ki (binding / inhibition of NMDARs); cited from earlier work.

Regarding `N[C@@]1(c2ccccc2Cl)C[C@H](O)CCC1=O` [(2R,4R)-HNK], in data set [1] (female mice), the “B:P ratio (brain to plasma AUC ratio)” value is 1.2, the “t1/2 Brain” value turned out to be 30 min and the “t1/2 Plasma” value came to 30 min. Further, in data set [1], the “Brain Concentration over time, sex-dependent difference” value was “F > M at 10 min”; the “Plasma Concentration over time, sex-dependent difference” value is “F > M at 10 min”; the “Brain Total exposure (AUC), sex-dependent difference” value is reported as “M > F”; the “Plasma Total exposure (AUC), sex-dependent difference” value is recorded as “M > F”. Moreover, in data set [1] (male mice), the “B:P ratio (brain to plasma AUC ratio)” value came out at 1.3, the “Tmax in the brain” value is listed as 30 min, the “t1/2 Brain” value is 36 min and the “t1/2 Plasma” value turned out to be 36 min.

On to `N[C@@]1(c2ccccc2Cl)C[C@@H](O)CCC1=O` [(2R,4S)-HNK], for which, in data set [1] (female mice), the “B:P ratio (brain to plasma AUC ratio)” value was found to be 1.0, the “t1/2 Brain” value worked out at 18 min and the “t1/2 Plasma” value is 42 min. For the same molecule, in data set [1], the “Brain Concentration over time, sex-dependent difference” value is listed as “M > F at 10, 30, 60 min”; the “Plasma Concentration over time, sex-dependent difference” value is reported as “M > F at 10, 30 min”; the “Brain Total exposure (AUC), sex-dependent difference” value is recorded as “M > F”; the “Plasma Total exposure (AUC), sex-dependent difference” value is reported as “M > F”. For the same molecule, the “brain concentration at 4 h post-treatment” value in data set [1] (females, but not males) is recorded as “below LLOQs”. Moreover, in data set [1] (male mice), the “B:P ratio (brain to plasma AUC ratio)” value is recorded as 1.1, the “t1/2 Brain” value is 30 min and the “t1/2 Plasma” value came to 36 min.

`N[C@@]1(c2ccccc2Cl)CC[C@@H](O)CC1=O` [(2R,5R)-HNK]: in data set [1] (female mice), the “B:P ratio (brain to plasma AUC ratio)” value came out at 1.4, the “t1/2 Brain” value was determined as 30 min and the “t1/2 Plasma” value amounted to 30 min. In addition, in data set [1], the “Brain Concentration over time, sex-dependent difference” value is “NS”; the “Plasma Concentration over time, sex-dependent difference” value is “main effect of sex, M > F”; the “Plasma Total exposure (AUC), sex-dependent difference” value was “M > F”. In addition, in data set [1] (male mice), the “B:P ratio (brain to plasma AUC ratio)” value is listed as 1.2, the “t1/2 Brain” value came out at 24 min and the “t1/2 Plasma” value worked out at 30 min.

For `N[C@@]1(c2ccccc2Cl)CC[C@H](O)CC1=O` [(2R,5S)-HNK], in data set [1] (female mice), the “B:P ratio (brain to plasma AUC ratio)” value is 1.0, the “Tmax in the brain” value is on record as 30 min, the “t1/2 Brain” value came to 30 min and the “t1/2 Plasma” value amounted to 30 min. For the same molecule, in data set [1], the “Brain Concentration over time, sex-dependent difference” value is “F > M at 10, 30 min”; the “Plasma Concentration over time, sex-dependent difference” value is on record as “F > M at 10, 30 min”; the “Brain Total exposure (AUC), sex-dependent difference” value is “F > M”; the “Plasma Total exposure (AUC), sex-dependent difference” value is “F > M”. Further, in data set [1] (male mice), the “B:P ratio (brain to plasma AUC ratio)” value is reported as 0.9, the “t1/2 Brain” value was 30 min and the “t1/2 Plasma” value was determined as 30 min.

On to `N[C@]1(c2ccccc2Cl)C[C@H](O)CCC1=O` [(2S,4R)-HNK], for which the “brain concentration at 4 h post-treatment” value in data set [1] (both sexes) was “below LLOQs”. In data set [1] (female mice), the “B:P ratio (brain to plasma AUC ratio)” value was 1.0, the “t1/2 Brain” value amounted to 18 min and the “t1/2 Plasma” value worked out at 24 min. In data set [1], the “Brain Concentration over time, sex-dependent difference” value is on record as “F > M at 10 min” and the “Plasma Concentration over time, sex-dependent difference” value is reported as “F > M at 10 min”. For the same molecule, in data set [1] (male mice), the “B:P ratio (brain to plasma AUC ratio)” value is 0.9, the “t1/2 Brain” value was determined as 24 min and the “t1/2 Plasma” value is 30 min.

Turning to `N[C@]1(c2ccccc2Cl)C[C@@H](O)CCC1=O` [(2S,4S)-HNK], in data set [1] (female mice), the “B:P ratio (brain to plasma AUC ratio)” value is 0.9, the “t1/2 Brain” value came to 36 min and the “t1/2 Plasma” value stood at 42 min. In addition, in data set [1], the “Brain Concentration over time, sex-dependent difference” value is recorded as “F > M at 10, 30 min”; the “Plasma Concentration over time, sex-dependent difference” value is reported as “F > M at 10, 30 min”; the “Brain Total exposure (AUC), sex-dependent difference” value was “F > M”; the “Plasma Total exposure (AUC), sex-dependent difference” value is recorded as “F > M”. Moreover, in data set [1] (male mice), the “B:P ratio (brain to plasma AUC ratio)” value was found to be 0.7, the “t1/2 Brain” value turned out to be 36 min and the “t1/2 Plasma” value was found to be 42 min.

As for `N[C@]1(c2ccccc2Cl)CC[C@@H](O)CC1=O` [(2S,5R)-HNK], in data set [1] (female mice), the “B:P ratio (brain to plasma AUC ratio)” value was found to be 1.0, the “t1/2 Brain” value worked out at 30 min and the “t1/2 Plasma” value was found to be 30 min. In data set [1], the “Brain Concentration over time, sex-dependent difference” value is “NS”; the “Plasma Concentration over time, sex-dependent difference” value was “M > F at 30, 60 min”; the “Brain Total exposure (AUC), sex-dependent difference” value is reported as “M > F”; the “Plasma Total exposure (AUC), sex-dependent difference” value is recorded as “M > F”. In addition, in data set [1] (male mice), the “B:P ratio (brain to plasma AUC ratio)” value was 0.7, the “Tmax in the brain” value came out at 30 min, the “t1/2 Brain” value is 42 min and the “t1/2 Plasma” value was determined as 36 min.

For `N[C@]1(c2ccccc2Cl)CC[C@H](O)CC1=O` [(2S,5S)-HNK], the “brain concentration at 4 h post-treatment” value in data set [1] (both sexes) is recorded as “below LLOQs”. In data set [1] (female mice), the “B:P ratio (brain to plasma AUC ratio)” value was 1.3, the “t1/2 Brain” value amounted to 18 min and the “t1/2 Plasma” value turned out to be 36 min. Moreover, in data set [1], the “Brain Concentration over time, sex-dependent difference” value is reported as “NS” and the “Plasma Concentration over time, sex-dependent difference” value is “NS”. Further, in data set [1] (male mice), the “B:P ratio (brain to plasma AUC ratio)” value was found to be 1.2, the “t1/2 Brain” value is 18 min and the “t1/2 Plasma” value was 30 min.

As to `CNC1(c2ccccc2Cl)CCCCC1=O` (stereo not shown) [ketamine, reference compound], at NMDARs, the Ki is 0.25 to 1.06 µM.
